Experimental data: ChEMBL document CHEMBL4507258 (2021); call rule not given here
pKi: −log10 of the molar value.

Key:
Mu-type opioid receptor = Mu-type opioid receptor (Homo sapiens, UniProt P35372); assay: GPCRScan assay: inhibition of MOR; parameters: radioligand conc. used [nm] 1.0 – 2.0, parental cells stable HEK
[1] = biological target: Alpha-2B adrenergic receptor (Homo sapiens, UniProt P18089); assay: GPCRScan assay: inhibition of Alpha2B; parameters: radioligand conc. used [nm] 1.5 – 2.0, parental cells HEKT
[2] = biological target: 5-hydroxytryptamine receptor 1D (Homo sapiens) (UniProt P28221); conditions: Compound concentration 10.0 uM
[3] = biological target: 5-hydroxytryptamine receptor 6 (Homo sapiens) (UniProt P50406); conditions: Compound concentration 10.0 uM
[4] = biological target: Sodium-dependent noradrenaline transporter (Homo sapiens) (UniProt P23975); conditions: Compound concentration 10.0 uM
[5] = biological target: Beta-2 adrenergic receptor (Homo sapiens) (UniProt P07550); conditions: Compound concentration 10.0 uM
[6] = biological target: Muscarinic acetylcholine receptor M5 (Homo sapiens) (UniProt P08912); conditions: Compound concentration 10.0 uM
[7] = biological target: Alpha-1D adrenergic receptor (Homo sapiens) (UniProt P25100); conditions: Compound concentration 10.0 uM
[8] = biological target: Calcium/calmodulin-dependent protein kinase type 1B (Homo sapiens, UniProt Q6P2M8); assay: Inhibition of PNCK at compound concentration of 10.0 uM using the ScanMax (DiscoverX)
[9] = biological target: Death-associated protein kinase 3 (Homo sapiens, UniProt O43293); assay: Inhibition of DAPK3 at compound concentration of 10.0 uM using the ScanMax (DiscoverX)
[10] = biological target: Adenosine receptor A1 (Homo sapiens) (UniProt P30542); assay: Adenosine A1 receptor (h) CEREP ligand profiling; conditions: Compound concentration 10.0 uM
[11] = biological target: Adenosine receptor A3 (Homo sapiens) (UniProt P0DMS8); assay: Adenosine A 3 receptor (h) CEREP ligand profiling; conditions: Compound concentration 10.0 uM
[12] = biological target: Vasopressin V1a receptor (Homo sapiens) (UniProt P37288); assay: Vasopresine V1a receptor (h) CEREP ligand profiling; conditions: Compound concentration 10.0 uM
[13] = biological target: Beta-1 adrenergic receptor (Homo sapiens) (UniProt P08588); assay: beta1-adrenoceptor (h) CEREP ligand profiling; conditions: Compound concentration 10.0 uM
[14] = biological target: Type-2 angiotensin II receptor (Homo sapiens) (UniProt P50052); assay: Angiotensin AT2 receptor (h) CEREP ligand profiling; conditions: Compound concentration 10.0 uM
[15] = biological target: B2 bradykinin receptor (Homo sapiens) (UniProt P30411); assay: Bradykinin B2 receptor (h) CEREP ligand profiling; conditions: Compound concentration 10.0 uM
[16] = biological target: Cannabinoid receptor 2 (Homo sapiens) (UniProt P34972); assay: Cannabinoid CB2 receptor (h) CEREP ligand profiling; conditions: Compound concentration 10.0 uM
[17] = biological target: Cholecystokinin receptor type A (Homo sapiens) (UniProt P32238); assay: CholecystokininA receptor (h) CEREP ligand profiling; conditions: Compound concentration 10.0 uM
[18] = biological target: D(2) dopamine receptor (Homo sapiens) (UniProt P14416); assay: Dopamine D2 receptor (h) CEREP ligand profiling; conditions: Compound concentration 10.0 uM
[19] = biological target: D(3) dopamine receptor (Homo sapiens) (UniProt P35462); assay: Dopamine D3 receptor (h) CEREP ligand profiling; conditions: Compound concentration 10.0 uM
[20] = biological target: T1, D(4) dopamine receptor (Homo sapiens) (UniProt P21917); assay: Dopamine D4 receptor (h) CEREP ligand profiling; conditions: Compound concentration 10.0 uM
T1 sequence (whole entry): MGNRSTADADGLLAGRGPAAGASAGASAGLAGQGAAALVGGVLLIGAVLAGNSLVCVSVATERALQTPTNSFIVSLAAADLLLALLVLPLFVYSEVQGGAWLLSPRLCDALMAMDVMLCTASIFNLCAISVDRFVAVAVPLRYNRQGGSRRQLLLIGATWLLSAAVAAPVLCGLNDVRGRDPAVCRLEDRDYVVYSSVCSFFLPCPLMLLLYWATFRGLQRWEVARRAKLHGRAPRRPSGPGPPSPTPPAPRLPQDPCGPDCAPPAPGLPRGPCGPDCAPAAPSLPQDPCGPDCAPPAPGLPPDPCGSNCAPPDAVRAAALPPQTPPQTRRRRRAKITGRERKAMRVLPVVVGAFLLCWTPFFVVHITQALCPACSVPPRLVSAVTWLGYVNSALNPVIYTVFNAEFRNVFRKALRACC

[21] = biological target: Interleukin-1 beta (Homo sapiens) (UniProt P01584); assay: Interleukin-1beta CEREP ligand profiling; conditions: Compound concentration 10.0 uM
Histamine H1 receptor = Histamine H1 receptor (Homo sapiens, UniProt P35367); assay: Histamine H1 receptor (central) CEREP ligand profiling; conditions: Compound concentration 10.0 uM
[22] = biological target: Melatonin receptor type 1A (Homo sapiens) (UniProt P48039); assay: Melatonin ML1 receptor CEREP ligand profiling; conditions: Compound concentration 10.0 uM
[23] = biological target: Muscarinic acetylcholine receptor M4 (Homo sapiens) (UniProt P08173); assay: Muscarinic M4 receptors (h) CEREP ligand profiling; conditions: Compound concentration 10.0 uM
[24] = biological target: Neuropeptide Y receptor type 2 (Homo sapiens) (UniProt P49146); assay: Y2 receptor CEREP ligand profiling; conditions: Compound concentration 10.0 uM
[25] = biological target: Kappa-type opioid receptor (Homo sapiens, UniProt P41145); assay: kappa-Opioid receptor (h) CEREP ligand profiling; conditions: Compound concentration 10.0 uM
[26] = biological target: Thromboxane A2 receptor (Homo sapiens) (UniProt P21731); assay: Thromboxane A2/ prostaglandin H2 receptors CEREP ligand profiling; conditions: Compound concentration 10.0 uM
[27] = biological target: P2X receptor (Rattus norvegicus) (UniProt P51579+P49653+P51578+Q64663+P47824+P51577+P49654); assay: P2X-purinergic receptor CEREP ligand profiling; format: protein assay; conditions: Compound concentration 10.0 uM
[28] = biological target: P2Y receptor (Homo sapiens) (UniProt Q9H244+P51582+P47900+P41231+Q15391+Q15077+Q96G91+Q9BPV8); assay: P2Y-purinergic receptor CEREP ligand profiling; format: protein assay; conditions: Compound concentration 10.0 uM
[29] = biological target: 5-hydroxytryptamine receptor 1B (Homo sapiens) (UniProt P28222); assay: 5-Hydroxytryptamine1B CEREP ligand profiling; conditions: Compound concentration 10.0 uM
[30] = biological target: 5-hydroxytryptamine receptor 2C (Homo sapiens) (UniProt P28335); assay: 5-Hydroxytryptamine2C (h) CEREP ligand profiling; conditions: Compound concentration 10.0 uM
[31] = biological target: 5-hydroxytryptamine receptor 5A (Homo sapiens) (UniProt P47898); assay: 5-Hydroxytryptamine5A (h) CEREP ligand profiling; conditions: Compound concentration 10.0 uM
[32] = biological target: 5-hydroxytryptamine receptor 7 (Homo sapiens) (UniProt P34969); assay: 5-Hydroxytryptamine7 (h) CEREP ligand profiling; conditions: Compound concentration 10.0 uM
[33] = biological target: Somatostatin receptor (Homo sapiens) (UniProt P35346+P30874+P31391+P30872+P32745); assay: Somatostatin receptor CEREP ligand profiling; format: protein assay; conditions: Compound concentration 10.0 uM
[34] = biological target: Vasoactive intestinal peptide receptor (Homo sapiens) (UniProt P41587+P32241+P41586); assay: Vasoactive intestinal peptide receptor CEREP ligand profiling; format: protein assay; conditions: Compound concentration 10.0 uM
[35] = biological target: Calcium-activated potassium channel (Homo sapiens) (UniProt Q92952+Q9UGI6+Q12791+O15554+Q9H2S1+A8MYU2); assay: K+ channel (Ca2+-dependent) CEREP ligand profiling; format: protein assay; conditions: Compound concentration 10.0 uM
[36] = Cl- ionophore CEREP ligand profiling; conditions: Compound concentration 10.0 uM
[37] = biological target: Muscarinic acetylcholine receptor M4 (Homo sapiens) (UniProt P08173); conditions: Compound concentration 10.0 uM
[38] = biological target: Endothelin receptor type B (Homo sapiens) (UniProt P24530); conditions: Compound concentration 10.0 uM
Chain of Endothelin receptor type B (Homo sapiens) (P24530 whole entry): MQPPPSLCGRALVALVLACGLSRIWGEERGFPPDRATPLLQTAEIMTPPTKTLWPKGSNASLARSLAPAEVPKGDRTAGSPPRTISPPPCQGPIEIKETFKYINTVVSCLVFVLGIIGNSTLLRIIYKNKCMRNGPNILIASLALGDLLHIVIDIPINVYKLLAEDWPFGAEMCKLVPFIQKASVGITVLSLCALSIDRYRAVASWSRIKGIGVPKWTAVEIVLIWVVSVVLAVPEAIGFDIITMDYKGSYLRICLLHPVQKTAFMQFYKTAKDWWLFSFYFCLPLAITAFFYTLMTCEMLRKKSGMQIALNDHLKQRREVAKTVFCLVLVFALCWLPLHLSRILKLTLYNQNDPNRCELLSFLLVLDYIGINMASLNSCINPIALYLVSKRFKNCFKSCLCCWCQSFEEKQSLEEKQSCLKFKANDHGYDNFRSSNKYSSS

Chain of Alpha-2B adrenergic receptor (P18089 whole entry): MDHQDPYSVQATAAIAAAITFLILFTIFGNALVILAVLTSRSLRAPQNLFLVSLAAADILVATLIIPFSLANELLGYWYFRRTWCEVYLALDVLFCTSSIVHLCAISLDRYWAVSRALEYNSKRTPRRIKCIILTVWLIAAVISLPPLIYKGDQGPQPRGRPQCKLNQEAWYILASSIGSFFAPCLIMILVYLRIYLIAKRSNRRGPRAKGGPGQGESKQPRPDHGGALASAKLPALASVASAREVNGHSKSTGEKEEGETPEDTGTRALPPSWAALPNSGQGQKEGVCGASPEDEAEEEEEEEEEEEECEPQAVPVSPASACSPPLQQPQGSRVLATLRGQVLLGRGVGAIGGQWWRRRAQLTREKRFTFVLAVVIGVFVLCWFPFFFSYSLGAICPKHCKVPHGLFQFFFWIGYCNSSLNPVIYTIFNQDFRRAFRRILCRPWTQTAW
Chain of Muscarinic acetylcholine receptor M4 (Homo sapiens) (P08173 whole entry): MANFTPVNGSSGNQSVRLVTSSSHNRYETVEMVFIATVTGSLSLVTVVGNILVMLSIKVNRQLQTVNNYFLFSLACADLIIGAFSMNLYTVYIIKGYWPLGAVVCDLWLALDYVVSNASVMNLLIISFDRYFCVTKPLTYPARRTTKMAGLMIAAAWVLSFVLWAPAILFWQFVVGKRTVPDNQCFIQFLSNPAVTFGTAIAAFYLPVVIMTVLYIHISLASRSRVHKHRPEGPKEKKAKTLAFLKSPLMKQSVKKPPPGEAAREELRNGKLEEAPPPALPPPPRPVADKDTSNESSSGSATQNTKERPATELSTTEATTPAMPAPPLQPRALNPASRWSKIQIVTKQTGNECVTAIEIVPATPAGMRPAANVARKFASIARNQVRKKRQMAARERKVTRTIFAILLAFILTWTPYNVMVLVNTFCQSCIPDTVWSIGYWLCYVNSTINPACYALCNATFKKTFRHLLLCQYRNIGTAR
Chain of 5-hydroxytryptamine receptor 1D (Homo sapiens) (P28221 whole entry): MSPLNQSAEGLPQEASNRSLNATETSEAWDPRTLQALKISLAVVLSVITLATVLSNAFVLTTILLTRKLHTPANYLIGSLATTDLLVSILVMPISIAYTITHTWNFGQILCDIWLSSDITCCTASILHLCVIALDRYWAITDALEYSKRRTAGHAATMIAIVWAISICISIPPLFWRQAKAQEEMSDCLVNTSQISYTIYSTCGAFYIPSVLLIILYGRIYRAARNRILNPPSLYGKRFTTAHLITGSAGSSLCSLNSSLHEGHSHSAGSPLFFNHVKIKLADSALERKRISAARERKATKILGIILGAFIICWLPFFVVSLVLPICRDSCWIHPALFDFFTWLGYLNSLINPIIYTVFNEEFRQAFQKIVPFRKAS
Chain of Adenosine receptor A3 (Homo sapiens) (P0DMS8 whole entry): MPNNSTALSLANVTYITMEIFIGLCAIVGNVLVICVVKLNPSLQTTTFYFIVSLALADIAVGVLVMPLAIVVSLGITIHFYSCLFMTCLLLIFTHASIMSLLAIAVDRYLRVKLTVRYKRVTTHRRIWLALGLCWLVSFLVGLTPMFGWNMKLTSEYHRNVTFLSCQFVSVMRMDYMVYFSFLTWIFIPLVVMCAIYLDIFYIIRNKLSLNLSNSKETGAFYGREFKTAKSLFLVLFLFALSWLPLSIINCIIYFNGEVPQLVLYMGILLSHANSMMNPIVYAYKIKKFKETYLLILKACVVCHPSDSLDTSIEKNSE
Chain of Neuropeptide Y receptor type 2 (Homo sapiens) (P49146 whole entry): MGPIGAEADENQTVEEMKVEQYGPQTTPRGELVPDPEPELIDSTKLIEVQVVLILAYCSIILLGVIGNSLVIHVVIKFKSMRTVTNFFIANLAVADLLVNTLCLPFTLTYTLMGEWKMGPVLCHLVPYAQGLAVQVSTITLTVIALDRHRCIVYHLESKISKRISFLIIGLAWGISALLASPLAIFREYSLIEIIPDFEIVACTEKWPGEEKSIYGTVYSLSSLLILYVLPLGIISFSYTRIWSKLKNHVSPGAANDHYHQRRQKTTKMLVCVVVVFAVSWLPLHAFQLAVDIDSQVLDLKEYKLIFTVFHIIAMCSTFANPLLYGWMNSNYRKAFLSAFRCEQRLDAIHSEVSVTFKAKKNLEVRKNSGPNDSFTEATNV
Chain of Vasopressin V1a receptor (Homo sapiens) (P37288 whole entry, looked up): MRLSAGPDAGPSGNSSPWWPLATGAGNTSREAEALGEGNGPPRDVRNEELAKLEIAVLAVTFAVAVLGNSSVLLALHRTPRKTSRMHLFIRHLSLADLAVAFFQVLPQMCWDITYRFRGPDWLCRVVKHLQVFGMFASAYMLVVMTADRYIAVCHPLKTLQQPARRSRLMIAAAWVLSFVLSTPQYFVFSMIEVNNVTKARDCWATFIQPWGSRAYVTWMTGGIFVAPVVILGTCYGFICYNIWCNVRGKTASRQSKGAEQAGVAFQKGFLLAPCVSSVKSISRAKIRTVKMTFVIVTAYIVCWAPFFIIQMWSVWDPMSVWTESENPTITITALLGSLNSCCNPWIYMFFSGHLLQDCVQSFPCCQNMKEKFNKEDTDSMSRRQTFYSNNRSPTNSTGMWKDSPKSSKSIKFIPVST
Chain of Death-associated protein kinase 3 (O43293 whole entry): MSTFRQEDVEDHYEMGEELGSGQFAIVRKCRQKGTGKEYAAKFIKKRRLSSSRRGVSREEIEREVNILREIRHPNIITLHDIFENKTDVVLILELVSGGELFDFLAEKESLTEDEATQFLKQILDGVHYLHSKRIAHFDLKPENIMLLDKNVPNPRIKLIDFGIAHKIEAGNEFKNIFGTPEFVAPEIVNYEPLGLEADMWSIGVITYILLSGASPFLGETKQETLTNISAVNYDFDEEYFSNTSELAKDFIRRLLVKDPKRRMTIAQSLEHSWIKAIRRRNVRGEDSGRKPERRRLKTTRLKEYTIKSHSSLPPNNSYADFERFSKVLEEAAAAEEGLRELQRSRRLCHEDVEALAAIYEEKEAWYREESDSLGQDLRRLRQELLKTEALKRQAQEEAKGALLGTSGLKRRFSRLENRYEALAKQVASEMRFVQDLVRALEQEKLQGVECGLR
Chain of Beta-1 adrenergic receptor (Homo sapiens) (P08588 whole entry, looked up): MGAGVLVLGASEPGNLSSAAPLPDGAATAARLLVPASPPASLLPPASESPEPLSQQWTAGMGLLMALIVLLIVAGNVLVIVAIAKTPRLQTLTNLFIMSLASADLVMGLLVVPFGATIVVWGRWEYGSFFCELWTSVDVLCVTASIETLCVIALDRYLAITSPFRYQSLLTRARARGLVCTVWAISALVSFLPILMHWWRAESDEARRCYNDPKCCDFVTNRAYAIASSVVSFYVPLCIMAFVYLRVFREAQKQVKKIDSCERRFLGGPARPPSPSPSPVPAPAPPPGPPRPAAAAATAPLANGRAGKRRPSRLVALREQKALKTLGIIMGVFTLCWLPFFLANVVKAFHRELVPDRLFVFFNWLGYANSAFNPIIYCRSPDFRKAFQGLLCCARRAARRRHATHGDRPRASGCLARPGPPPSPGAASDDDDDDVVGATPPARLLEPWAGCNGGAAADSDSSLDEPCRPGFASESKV
Chain of D(3) dopamine receptor (Homo sapiens) (P35462 whole entry): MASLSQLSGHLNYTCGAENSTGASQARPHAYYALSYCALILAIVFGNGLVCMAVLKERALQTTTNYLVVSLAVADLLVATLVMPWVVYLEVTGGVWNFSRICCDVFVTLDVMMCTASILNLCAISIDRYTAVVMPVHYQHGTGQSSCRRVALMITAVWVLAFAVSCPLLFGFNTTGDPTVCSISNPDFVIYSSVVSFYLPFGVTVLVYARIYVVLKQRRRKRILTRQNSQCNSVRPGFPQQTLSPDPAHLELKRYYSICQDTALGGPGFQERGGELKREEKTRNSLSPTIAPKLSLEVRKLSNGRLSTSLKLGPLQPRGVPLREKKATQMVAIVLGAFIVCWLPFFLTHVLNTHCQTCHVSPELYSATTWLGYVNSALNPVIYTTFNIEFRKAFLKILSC
Chain of B2 bradykinin receptor (Homo sapiens) (P30411 whole entry): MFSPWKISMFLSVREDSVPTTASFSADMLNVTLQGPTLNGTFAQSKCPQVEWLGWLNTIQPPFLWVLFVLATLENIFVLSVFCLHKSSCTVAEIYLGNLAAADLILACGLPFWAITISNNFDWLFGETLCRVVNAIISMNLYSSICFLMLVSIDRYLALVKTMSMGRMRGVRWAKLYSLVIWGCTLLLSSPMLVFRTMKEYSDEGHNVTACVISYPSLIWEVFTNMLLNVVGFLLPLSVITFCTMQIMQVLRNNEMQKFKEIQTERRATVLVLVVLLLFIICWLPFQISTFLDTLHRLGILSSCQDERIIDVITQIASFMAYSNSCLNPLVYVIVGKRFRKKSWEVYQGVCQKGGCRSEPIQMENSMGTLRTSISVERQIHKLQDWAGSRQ
Chain of Thromboxane A2 receptor (Homo sapiens) (P21731 whole entry): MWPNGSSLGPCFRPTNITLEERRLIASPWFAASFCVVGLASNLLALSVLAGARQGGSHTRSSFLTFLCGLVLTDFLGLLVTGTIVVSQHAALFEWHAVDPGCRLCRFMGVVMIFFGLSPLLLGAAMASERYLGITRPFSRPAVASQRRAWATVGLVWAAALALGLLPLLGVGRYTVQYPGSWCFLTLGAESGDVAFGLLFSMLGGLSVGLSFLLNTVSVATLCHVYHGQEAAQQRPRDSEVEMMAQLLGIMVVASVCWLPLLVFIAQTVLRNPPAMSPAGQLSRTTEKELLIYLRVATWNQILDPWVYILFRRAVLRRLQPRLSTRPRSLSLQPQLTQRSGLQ

Structure (SMILES): CCCCN(CCCC)C(=O)CN1C[C@@H](c2cc(OC)c3c(c2)OCO3)[C@H](C(=O)O)[C@H]1CC(C)(C)CCC [A-545]
- pKi (Mu-type opioid receptor): 5.56
- pKi ([1]; read-out: Ki): 5.33
- Ki ([1]; read-out: pKi (converted)): 4.17 µM
- inhibition [2]: -3.72%
- inhibition [3]: 33.5%
- inhibition [4]: 38.5%
- inhibition [5]: -6.31%
- inhibition [6]: 1.1%
- inhibition [7]: 6.55%

Structure (SMILES): CCCCN(CCCC)C(=O)CN1C[C@H](c2cc(OC)c3c(c2)OCO3)[C@@H](C(=O)O)[C@@H]1CC(C)(C)CCC [ABT-546]
- Kd [8]: > 10 µM (not active)
- Kd [9]: > 10 µM (not active)
- inhibition [10]: 23%
- inhibition [11]: 32%
- inhibition [12]: < 10%
- inhibition [13]: < 10%
- inhibition [14]: < 10%
- inhibition [15]: < 10%
- inhibition [16]: 11%
- inhibition [17]: < 10%
- inhibition [18]: < 10%
- inhibition [19]: < 10%
- inhibition [20]: < 10%
- inhibition [21]: < 10%
- inhibition (Histamine H1 receptor): < 10%
- inhibition [22]: 12%
- inhibition [23]: < 10%
- inhibition [24]: < 10%
- inhibition [25]: 28%
- inhibition [26]: 16%
- inhibition [27]: 37%
- inhibition [28]: < 10%
- inhibition [29]: < 10%
- inhibition [30]: < 10%
- inhibition [31]: < 10%
- inhibition [32]: < 10%
- inhibition [33]: < 10%
- inhibition [34]: < 10%
- inhibition [35]: < 10%
- inhibition [36]: 61%
- inhibition [37]: 8.5%
- inhibition [38]: 56%
